The values below come from article PMC9945182 (Chemical Research in Toxicology, 2023).

For data set [1], the system named is CYP2A6. Conditions: cited from earlier work.
A further data set has as its target T1, CYP2B6 (Homo sapiens, UniProt P20813).
T1 sequence (P20813 1-491): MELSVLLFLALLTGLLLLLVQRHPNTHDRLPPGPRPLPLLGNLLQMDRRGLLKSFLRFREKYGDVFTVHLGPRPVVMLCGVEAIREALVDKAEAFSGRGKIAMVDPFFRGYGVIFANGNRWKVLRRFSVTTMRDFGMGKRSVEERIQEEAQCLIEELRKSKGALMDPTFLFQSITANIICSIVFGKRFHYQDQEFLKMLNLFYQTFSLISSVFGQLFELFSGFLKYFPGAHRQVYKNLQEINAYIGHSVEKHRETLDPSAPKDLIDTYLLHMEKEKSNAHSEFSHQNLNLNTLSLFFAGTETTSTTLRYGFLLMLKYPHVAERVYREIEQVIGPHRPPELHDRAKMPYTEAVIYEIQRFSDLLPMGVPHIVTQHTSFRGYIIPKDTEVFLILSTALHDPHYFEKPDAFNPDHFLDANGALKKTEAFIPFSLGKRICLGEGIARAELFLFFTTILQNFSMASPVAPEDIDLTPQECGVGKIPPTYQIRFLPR
It counts as biochemical. Conditions: human, microsomes from CYP2B6-overexpressing HEK293 cells, pH 7.4, probe nicotine (cotinine formation).

A further data set addresses T2, UGT2B7 (Homo sapiens, UniProt P16662).
T2 sequence (P16662 24-529): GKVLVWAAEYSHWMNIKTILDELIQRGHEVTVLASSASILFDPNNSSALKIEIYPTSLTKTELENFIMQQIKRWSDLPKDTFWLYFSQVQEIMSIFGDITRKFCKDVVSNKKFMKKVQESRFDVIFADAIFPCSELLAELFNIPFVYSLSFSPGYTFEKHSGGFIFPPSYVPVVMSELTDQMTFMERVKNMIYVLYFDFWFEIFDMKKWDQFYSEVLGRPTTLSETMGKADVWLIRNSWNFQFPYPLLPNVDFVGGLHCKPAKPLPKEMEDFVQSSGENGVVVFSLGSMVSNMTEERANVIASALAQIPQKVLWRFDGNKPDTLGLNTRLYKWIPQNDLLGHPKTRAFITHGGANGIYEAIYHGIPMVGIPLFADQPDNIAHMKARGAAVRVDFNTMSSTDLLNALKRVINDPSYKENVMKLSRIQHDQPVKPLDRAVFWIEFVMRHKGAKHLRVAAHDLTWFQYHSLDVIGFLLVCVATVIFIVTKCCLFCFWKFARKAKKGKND
It counts as biochemical. Conditions: human, microsomes from UGT2B7-overexpressing HEK293 cells, pH 7.4, probe 3HC (30 mM), 3HC-Gluc formation.

Another data set deals with T3, UGT2B17 (Homo sapiens, UniProt O75795).
T3 sequence (O75795 24-530): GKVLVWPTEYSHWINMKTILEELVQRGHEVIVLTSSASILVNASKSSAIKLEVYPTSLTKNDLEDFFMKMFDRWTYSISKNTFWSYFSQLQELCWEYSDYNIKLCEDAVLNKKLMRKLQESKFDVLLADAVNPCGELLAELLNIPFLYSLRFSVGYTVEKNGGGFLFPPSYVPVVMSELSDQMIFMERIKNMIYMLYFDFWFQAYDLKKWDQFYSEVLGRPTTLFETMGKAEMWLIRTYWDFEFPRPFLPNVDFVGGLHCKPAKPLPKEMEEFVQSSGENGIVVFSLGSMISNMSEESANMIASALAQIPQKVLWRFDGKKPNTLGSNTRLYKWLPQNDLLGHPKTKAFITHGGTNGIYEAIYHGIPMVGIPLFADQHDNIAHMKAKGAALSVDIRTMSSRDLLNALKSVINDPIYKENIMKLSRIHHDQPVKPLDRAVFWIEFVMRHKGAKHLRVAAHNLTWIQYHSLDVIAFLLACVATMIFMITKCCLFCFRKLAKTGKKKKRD
The data set is classed as biochemical. Conditions: human, microsomes from UGT2B17-overexpressing HEK293 cells, pH 7.4, probe 3HC (30 mM), 3HC-Gluc formation.

In data set [2] the target is T4, CYP2A6 (Homo sapiens, UniProt P11509).
T4 sequence (P11509 1-494): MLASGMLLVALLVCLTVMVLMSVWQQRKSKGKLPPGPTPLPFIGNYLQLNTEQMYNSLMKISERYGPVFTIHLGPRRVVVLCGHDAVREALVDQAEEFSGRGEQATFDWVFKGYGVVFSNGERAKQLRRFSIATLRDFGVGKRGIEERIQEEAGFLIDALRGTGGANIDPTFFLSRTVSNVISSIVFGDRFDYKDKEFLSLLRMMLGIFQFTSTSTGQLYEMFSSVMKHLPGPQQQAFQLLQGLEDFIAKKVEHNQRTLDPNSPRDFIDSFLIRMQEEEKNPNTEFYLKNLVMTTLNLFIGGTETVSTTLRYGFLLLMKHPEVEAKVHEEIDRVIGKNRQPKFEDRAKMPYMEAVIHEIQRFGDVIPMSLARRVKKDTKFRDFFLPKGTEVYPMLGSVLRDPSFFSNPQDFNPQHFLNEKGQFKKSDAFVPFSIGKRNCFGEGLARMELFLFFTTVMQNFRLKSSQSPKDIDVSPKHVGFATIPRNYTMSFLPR
The data set is classed as biochemical. Conditions: 10 μM inhibitor; nicotine substrate; CYP2A6 microsomes; vs 100% activity control.

For data set [3], the target named is T4, CYP2A6. The data set is classed as biochemical. Conditions: 10 μM inhibitor; nicotine substrate; CYP2A6 microsomes.
The conditions of data set [4]: majority of tobacco users; cited from earlier work.

In the case of `C#CCN(C)[C@H](C)Cc1ccccc1` [selegiline], the Ki with CYP2A6 [1] is 4.6 µM.

On CYP2B6, `COC(=O)[C@H](c1ccccc1Cl)N1CCc2sccc2C1` [clopidogrel] showed an inhibition at 30 min, 50 µM of 60%.

For `Cc1ccc(NC(=O)c2ccc(CN3CCN(C)CC3)cc2)cc1Nc1nccc(-c2cccnc2)n1` [imatinib], the inhibition at 200 µM at UGT2B7 and against UGT2B17 was at most 65% throughout.

Take `N[C@@H]1C[C@H]1c1ccccc1` (racemic) [tranylcypromine]: on CYP2A6 [2], the “inhibition of cotinine formation” value came out at 70%. Also, the “inhibition of nornicotine formation” value against CYP2A6 [3] is 95%.

Turning to `CN1CCC[C@H]1c1cccnc1` [nicotine], the “fraction of nicotine metabolized to cotinine by CYP2A6” value in data set [4] is “greater than 70%”.
